# Tested on: α‐Syn
# Assay: phase-contrast light microscopy of α-Syn droplet and fibril formation
# Assay type: biochemical, human
# Method: Figure 1 A) Phase‐contrast light microscopy snapshots of 100 μM and 200 μM α‐Syn solutions collected 2, 4, 7, 9 and 16 days after incubation of the monomeric α‐Syn. B) Phase‐contrast light microscopy snapshots of a solution of 100 μM α‐Syn in the presence of the reported concentration of antimicrobial peptide LL‐III. Each sample was prepared by mixing the monomeric form of α‐Syn with LL‐III. The pictures were taken after 9 and 16 days of incubation. For the snapshots after 16 days, at each peptide concentration, two different regions of the cover slip were sampled, showing the presence of discrete droplets as well as droplet clusters in solution. C) Phase‐contrast light and fluorescence microscopy snapshots of a 100 μM α‐Syn solution in the presence of 50 μM LL‐III (total peptide concentration, the concentration of the carboxyfluorescein‐labelled peptide was 1 μM). All the experiments were performed at room temperature (25 °C) in 20 mM sodium acetate buffer, pH 5.0. The scale bar is 30 μm.
# To reveal if the short antimicrobial peptide LL‐III is able to affect the fibril formation of α‐Syn, we performed a series of microscopy experiments by using 100 μM of α‐Syn and varying the concentration of LL‐III between 50 μM and 500 μM. The samples were prepared by mixing a solution of LL‐III peptide and α‐Syn in the monomeric state and taking pictures after 9 and 16 days. The results are collected in Figure 1B. […] After 9 days, droplets as well as clusters thereof were visible. The size of the clusters depended on the LL‐III concentration. Higher peptide concentrations promoted the association of more droplets. […] To confirm partitioning of the LL‐III peptide in the α‐Syn droplets, complementary fluorescence microscopy experiments were performed using a carboxyfluorescein‐labelled LL‐III peptide.
# The lyophilized powders of the labeled and unlabeled LL-III peptide were purchased from GenScript, Germany.
# The sequence of the LL-III peptide is NH2-VNWKKIL GKIIKVVK -CONH2. In th e labeled peptide, the fluorophore 6-carboxyfluorescein (FAM) was covalently attached to the N-terminus of the peptide. All the solutions were pre-pared in 20 mM sodium acetate buffer at pH 5.0. Deionized water was used for the buffer and all sample prepara- […]
# Expression and purification of α-synuclein
# The expression and purification of α-synuclein (α-Syn) was carried out as described before.[1,2] The plasmid was purchased from GenScript. The plasmid pT7- 7 expressing human α-synuclein was transformed into Escherichia coli strain BL21 (DE3). A single colony was picked and inoculated into 100 m l LB medium containing 150 μg/m l ampicillin and grown at 37°C with shaking at 250 rpm until the absorbance at 600 nm reached 0.8. Induction was then carried out by adding 1 mM IPTG (final concentration) and the culture was further grown under similar con-ditions for 3 h. The cells were harvested, resuspended in 0.75 ml of buffer (50 mM Tris-HCl, pH 7.5, 10 mM EDTA and 150 mM NaCl) and frozen at - 80 °C. Tubes containing frozen cells were placed in a boiling water bath for 7 min and the supernatant collected after centrifugation at maximum speed for […]. Streptomycin sulfate (136 μl/ml of supernatant) and glacial acetic acid (228 μl/ml of supernatant) were added and centrifuged for 2 min. Again, t he supernatant was recovered and precipitated with ammonium sulfate (saturated ammonium sulfate at 4°C was used 1:1, v/v, with supernatant). […]
substance,measurement,setting,value
NH2-VNWKKIL GKIIKVVK -CONH2 [LL‐III],inhibition of α-Syn fibril formation,"100 μM monomeric α-Syn, LL-III 50–500 μM, 9 and 16 days, 20 mM sodium acetate, pH 5.0, 25 °C",LL‐III inhibits formation of the amyloidogenic state of the protein
same,inhibition of fibril formation at 50 μM LL-III,"100 μM α-Syn, 50 μM LL-III, 20 mM sodium acetate, pH 5.0, 25 °C",the formation of fibrils was already inhibited
same,number of droplets,"100 μM α-Syn, 200 μM and 500 μM LL-III, pH 5.0, 25 °C",the number of droplets was significantly increased
same,effect on droplet condensate after 16 days,"100 μM α-Syn, LL-III 50–500 μM, 16 days, pH 5.0, 25 °C",fostered formation of the droplet condensate
same,decondensation of the droplets,conclusion,No decondensation of the droplets takes place

# — PMC8457056, “Remodeling of the Fibrillation Pathway of α‐Synuclein by Interaction with Antimicrobial Peptide LL‐III” (Chemistry (Weinheim an Der Bergstrasse, Germany), 2021)
